Measured values taken from US12029816B2, “Compositions and methods of making brittle-matrix particles through blister pack freezing” (BOARD OF REGENTS, THE UNIVERSITY OF TEXAS SYSTEM, priority 2010, dated 2024).

Conditions: pH 7.4
Protocol: HFA-exposed TFF ITZ powder (1 mg) was added to 50 mL of dissolution media to yield an initial drug loading of 20 μg/mL. Sample aliquots (1.5 mL) were taken from the dissolution vessels at various time points. The aliquots were filtered immediately using a 0.2 μm syringe filter. […] TFF ITZ powder that had been previously exposed to HFA 227 (1 mg) was added to the dissolution media (50 mL) to achieve an initial loading of 20 μg ITZ/mL. All samples were filtered with 0.2 μm pore size filters.

- equilibrium solubility: 1.4 µg/mL
Structure (SMILES): CCC(C)n1ncn(-c2ccc(N3CCN(c4ccc(OCC5COC(Cn6cncn6)(c6ccc(Cl)cc6Cl)O5)cc4)CC3)cc2)c1=O (stereo not shown) [crystalline ITZ, itraconazole]
